Patent publication US9062078B2, “Substituted 7-azabicyles and their use as orexin receptor modulators” (priority 2013, dated 2015)
Where two headings read alike, the source gives them in different places.

Tests used:
rat orexin 1 receptor = rat orexin 1 receptor (Rattus norvegicus, UniProt P56718); assay: Rat orexin 1 receptor radioligand binding (competitive, [3H]-SB674042, HEK293 cell preparations)
human orexin 2 receptor = human orexin 2 receptor (Homo sapiens (Human), UniProt O43614); assay: Human orexin 2 receptor radioligand binding (competitive, [3H]-EMPA, HEK293 cell preparations)
[1] = rat orexin 1 receptor, [3H]-SB674042 competition binding, read-out: rOX1 Ki (nm)
[2] = human orexin 2 receptor, [3H]-EMPA competition binding, read-out: hOX2 Ki (nm)

Chain of human orexin 2 receptor (O43614 whole entry): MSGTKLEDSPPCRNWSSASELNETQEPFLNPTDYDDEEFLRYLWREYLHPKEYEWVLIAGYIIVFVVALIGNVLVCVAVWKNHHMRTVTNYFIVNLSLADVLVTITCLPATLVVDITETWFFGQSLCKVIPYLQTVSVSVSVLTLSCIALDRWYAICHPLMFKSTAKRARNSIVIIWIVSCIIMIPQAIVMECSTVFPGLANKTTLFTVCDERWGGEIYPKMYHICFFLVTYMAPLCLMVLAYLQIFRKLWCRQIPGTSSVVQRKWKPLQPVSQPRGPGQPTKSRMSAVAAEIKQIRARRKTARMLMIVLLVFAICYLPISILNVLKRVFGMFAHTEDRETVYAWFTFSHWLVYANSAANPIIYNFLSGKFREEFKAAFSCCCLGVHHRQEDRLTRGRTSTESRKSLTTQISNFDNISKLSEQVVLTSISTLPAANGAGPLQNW

Row | SMILES | Ki (rat orexin 1 receptor; [1]) | Ki (human orexin 2 receptor; hOX2 Ki (nm)) | Ki (rat orexin 1 receptor; rOX1 Ki (nm)) | Ki (human orexin 2 receptor; [2])
1 | O=C(c1cccc(F)c1-c1ncccn1)N1C2CCC1C(COc1ccccn1)C2 (racemic) [Example 52, (±)-(3-fluoro-2-(pyrimidin-2-yl)phenyl)(2-((pyridin-2-yloxy)methyl)-7-azabicyclo[2.2.1]heptan-7-yl)methanone] | 0.35 µM | 2.3 µM |  | 
2 | Cc1ccc(-n2nccn2)c(C(=O)N2C3CCC2C(COc2cccnn2)C3)n1 (racemic) [Example 53, (±)-(6-methyl-3-(2H-1,2,3-triazol-2-yl)pyridin-2-yl)(2-((pyridazin-3-yloxy)methyl)-7-azabicyclo[2.2.1]heptan-7-yl)methanone] | 2.2 µM | > 10 µM |  | 
3 | Cc1ccc(-n2nccn2)c(C(=O)N2C3CCC2C(COc2cccnc2C)C3)n1 (racemic) [Example 54, (±)-(6-methyl-3-(2H-1,2,3-triazol-2-yl)pyridin-2-yl)(2-(((2-methylpyridin-3-yl)oxy)methyl)-7-azabicyclo[2.2.1]heptan-7-yl)methanone] |  |  | 3.5 µM | 2.2 µM
4 | Cc1ccc(-n2nccn2)c(C(=O)N2C3CCC2C(COc2ccnn2C)C3)n1 (racemic) [Example 56, (±)-(2-(((1-methyl-1H-pyrazol-5-yl)oxy)methyl)-7-azabicyclo[2.2.1]heptan-7-yl)(6-methyl-3-(2H-1,2,3-triazol-2-yl)pyridin-2-yl)methanone] | > 10 µM | > 10 µM |  | 
5 | Cc1ccc(-n2nccn2)c(C(=O)N2C3CCC2C(COc2ccncc2)C3)n1 (racemic) [Example 57, (±)-(6-methyl-3-(2H-1,2,3-triazol-2-yl)pyridin-2-yl)(2-((pyridin-4-yloxy)methyl)-7-azabicyclo[2.2.1]heptan-7-yl)methanone] | 1 µM |  |  | 7.3 µM
6 | Cc1ccc(-n2nccn2)c(C(=O)N2C3CCC2C(COc2ncccn2)C3)n1 (racemic) [Example 59, (±)-(6-methyl-3-(2H-1,2,3-triazol-2-yl)pyridin-2-yl)(2-((pyrimidin-2-yloxy)methyl)-7-azabicyclo[2.2.1]heptan-7-yl)methanone] | 2.6 µM | 4.9 µM |  | 
7 | Cc1ccc(-n2nccn2)c(C(=O)N2C3CCC2C(COc2cnccn2)C3)n1 (racemic) [Example 60, (±)-(6-methyl-3-(2H-1,2,3-triazol-2-yl)pyridin-2-yl)(2-((pyrazin-2-yloxy)methyl)-7-azabicyclo[2.2.1]heptan-7-yl)methanone] | 7.8 µM | > 10 µM |  | 
8 | Cc1ccc(-n2nccn2)c(C(=O)N2C3CCC2C(COc2ccncn2)C3)n1 (racemic) [Example 61, (±)-(6-methyl-3-(2H-1,2,3-triazol-2-yl)pyridin-2-yl)(2-((pyrimidin-4-yloxy)methyl)-7-azabicyclo[2.2.1]heptan-7-yl)methanone] |  | > 10 µM | 2.8 µM | 
9 | Cc1ccc(-c2ncccc2C)c(C(=O)N2C3CCC2C(COc2ccc(F)cn2)C3)n1 (racemic) [Example 65, (±)-(3,6′-dimethyl-[2,3′-bipyridin]-2′-yl)(2-(((5-fluoropyridin-2-yl)oxy)methyl)-7-azabicyclo[2.2.1]heptan-7-yl)methanone] |  |  | 1.44 µM | 6.2 µM
10 | Cc1cnc(C(=O)N2C3CCC2C(COc2ccccn2)C3)c(-n2nccn2)c1 (racemic) [Example 71, (±)-(5-methyl-3-(2H-1,2,3-triazol-2-yl)pyridin-2-yl)(2-((pyridin-2-yloxy)methyl)-7-azabicyclo[2.2.1]heptan-7-yl)methanone] | 1.2 µM |  |  | 3.7 µM
11 | Cc1ccc(N(C)C)c(C(=O)N2C3CCC2C(COc2ccccn2)C3)n1 (racemic) [Example 73, (±)-(3-(dimethylamino)-6-methylpyridin-2-yl)(2-((pyridin-2-yloxy)methyl)-7-azabicyclo[2.2.1]heptan-7-yl)methanone] | 0.278 µM |  |  | 7.9 µM
12 | O=C(c1nc2ccccc2cc1-n1nccn1)N1C2CCC1C(COc1ccccn1)C2 (racemic) [Example 74, (±)-(3-(2H-1,2,3-triazol-2-yl)quinolin-2-yl)(2-((pyridin-2-yloxy)methyl)-7-azabicyclo[2.2.1]heptan-7-yl)methanone] |  |  | 0.359 µM | 1.7 µM
13 | Cc1ccc2ncc(C)n2c1C(=O)N1C2CCC1C(COc1ccccn1)C2 (racemic) [Example 76, (±)-(3,6-dimethylimidazo[1,2-a]pyridin-5-yl)(2-((pyridin-2-yloxy)methyl)-7-azabicyclo[2.2.1]heptan-7-yl)methanone] | > 10 µM |  |  | > 10 µM
14 | Cn1cc(C(=O)N2C3CCC2C(COc2ccccn2)C3)c(-c2ccccc2)n1 (racemic) [Example 78, (±)-(1-methyl-3-phenyl-1H-pyrazol-4-yl)(2-((pyridin-2-yloxy)methyl)-7-azabicyclo[2.2.1]heptan-7-yl)methanone] | 0.418 µM |  |  | 3.1 µM
15 | Cc1ccn2c(C)cnc2c1C(=O)N1C2CCC1C(COc1ccccn1)C2 (racemic) [Example 79, (±)-((3,7-dimethylimidazo[1,2-a]pyridin-8-yl)(2-((pyridin-2-yloxy)methyl)-7-azabicyclo[2.2.1]heptan-7-yl)methanone] | 2.4 µM |  |  | 8.5 µM
16 | Cc1ccn2ccnc2c1C(=O)N1C2CCC1C(COc1ccccn1)C2 (racemic) [Example 80, (±)-(7-methylimidazo[1,2-a]pyridin-8-yl)(2-((pyridin-2-yloxy)methyl)-7-azabicyclo[2.2.1]heptan-7-yl)methanone] | 1.1 µM |  |  | > 10 µM
17 | Cn1ncc(-c2ccccc2)c1C(=O)N1C2CCC1C(COc1ccccn1)C2 (racemic) [Example 81, (±)-(1-methyl-4-phenyl-1H-pyrazol-5-yl)(2-((pyridin-2-yloxy)methyl)-7-azabicyclo[2.2.1]heptan-7-yl)methanone] | 0.916 µM |  |  | 2.9 µM
18 | Cn1ncc(C(=O)N2C3CCC2C(COc2ccccn2)C3)c1-c1ccccc1 (racemic) [Example 84, (±)-(1-methyl-5-phenyl-1H-pyrazol-4-yl)(−2-((pyridin-2-yloxy)methyl)-7-azabicyclo[2.2.1]heptan-7-yl)methanone] | 2.6 µM |  |  | 9.7 µM
19 | Cc1ccc(N2CCN(C)CC2)c(C(=O)N2C3CCC2C(COc2ccccn2)C3)n1 (racemic) [Example 85, (±)-(6-methyl-3-(4-methylpiperazin-1-yl)pyridin-2-yl)(2-((pyridin-2-yloxy)methyl)-7-azabicyclo[2.2.1]heptan-7-yl)methanone] | > 10 µM |  |  | > 10 µM
20 | Cc1ccc(N2CCNCC2)c(C(=O)N2C3CCC2C(COc2ccccn2)C3)n1 (racemic) [Example 86, (±)-(6-methyl-3-(piperazin-1-yl)pyridin-2-yl)(2-((pyridin-2-yloxy)methyl)-7-azabicyclo[2.2.1]heptan-7-yl)methanone] | > 10 µM | > 10 µM |  | 
21 | Cc1ccc(N2CCOCC2)c(C(=O)N2[C@@H]3CC[C@H]2[C@H](COc2ccccn2)C3)n1 (racemic) [Example 87, (±)-(6-methyl-3-morpholinopyridin-2-yl)((1S,2R,4R)-2-((pyridin-2-yloxy)methyl)-7-azabicyclo[2.2.1]heptan-7-yl)methanone] | 4.2 µM | > 10 µM |  | 
22 | Cc1ccc(-c2ncccc2C)c(C(=O)N2C3CCC2C(COc2ccccn2)C3)n1 (racemic) [Example 90, (±)-(3,6′-dimethyl-[2,3′-bipyridin]-2′-yl)(2-((pyridin-2-yloxy)methyl)-7-azabicyclo[2.2.1]heptan-7-yl)methanone] | 3 µM | > 10 µM |  | 
23 | O=C(c1ncccc1-n1nccn1)N1C2CCC1C(COc1ccccn1)C2 (racemic) [Example 91, (±)-(3-(2H-1,2,3-triazol-2-yl)pyridin-2-yl)(2-((pyridin-2-yloxy)methyl)-7-azabicyclo[2.2.1]heptan-7-yl)methanone] |  |  | 0.624 µM | 3.3 µM
24 | Cc1ccc(-n2cccn2)c(C(=O)N2C3CCC2C(COc2ccccn2)C3)n1 (racemic) [Example 95, (±)-(6-methyl-3-(1H-pyrazol-1-yl)pyridin-2-yl)(2-((pyridin-2-yloxy)methyl)-7-azabicyclo[2.2.1]heptan-7-yl)methanone] | 0.247 µM |  |  | 3.7 µM
25 | Cc1ccc(-c2ncccc2C)c(C(=O)N2C3CCC2C(COc2ncc(F)cn2)C3)n1 (racemic) [Example 98, (±)-(3,6′-dimethyl-[2,3′-bipyridin]-2′-yl)(2-(((5-fluoropyrimidin-2-yl)oxy)methyl)-7-azabicyclo[2.2.1]heptan-7-yl)methanone] | > 10 µM |  |  | > 10 µM
26 | Cc1cc(-c2ccc(C)nc2C(=O)N2C3CCC2C(COc2ncc(F)cn2)C3)on1 (racemic) [Example 99, (±)-(2-(((5-fluoropyrimidin-2-yl)oxy)methyl)-7-azabicyclo[2.2.1]heptan-7-yl)(6-methyl-3-(3-methylisoxazol-5-yl)pyridin-2-yl)methanone] |  |  | 1.5 µM | 2.9 µM
27 | Cc1ccc(-c2ncco2)c(C(=O)N2C3CCC2C(COc2ncc(F)cn2)C3)n1 (racemic) [Example 100, (±)-(2-(((5-fluoropyrimidin-2-yl)oxy)methyl)-7-azabicyclo[2.2.1]heptan-7-yl)(6-methyl-3-(oxazol-2-yl)pyridin-2-yl)methanone] | 0.95 µM |  |  | 1.8 µM
28 | Cc1ccc(N2CCCC2)c(C(=O)N2C3CCC2C(COc2ncc(F)cn2)C3)n1 (racemic) [Example 101, (±)-(2-(((5-fluoropyrimidin-2-yl)oxy)methyl)-7-azabicyclo[2.2.1]heptan-7-yl)(6-methyl-3-(pyrrolidin-1-yl)pyridin-2-yl)methanone] | 0.65 µM |  |  | 1.2 µM
29 | Cc1cnn(-c2ccc(C)nc2C(=O)N2C3CCC2C(COc2ncc(F)cn2)C3)c1 (racemic) [Example 103, (±)-(2-(((5-fluoropyrimidin-2-yl)oxy)methyl)-7-azabicyclo[2.2.1]heptan-7-yl)(6-methyl-3-(4-methyl-1H-pyrazol-1-yl)pyridin-2-yl)methanone] | 1.7 µM | 3.6 µM |  | 
